In patent US20250386827A1, “PESTICIDES WITH METAL NANOPARTICLE AND CELLULOSIC NANOMATERIAL COMPLEX” (NDSU Research Foundation, priority 2024, published 2025):

Key:
[1] = Surface tension of droplet (pendant drop, drop-shape analyzer); format: physicochemical; details: 100 mg/mL in water
Description: Surface Adhesion Properties. The contact angle (θc) of the complexation solution on the wheat leaf surface and the surface tension at the liquid-vapor interface (γLV) were measured using a KRUSS (Model: DSA1005, Serial: 30009734, Germany) drop-shape analyzer. The wheat leaf was taped on the sample stage to prepare a flat and level surface for the measurement. […] KRUSS software tracked the surface of the droplet with respect to the leaf surface baseline and calculated the contact angle (θC). Surface tension γLv of the droplet (largest droplet formation at syringe nozzle just before dripping from the nozzle) was measured using a KRUSS drop shape analyzer (pendant needle was used, diameter 1.8 mm). The solid-liquid adhesion energy per unit area (δWSLV) of the droplet was calculated using the following Young-Dupré equation (1): […]

wheat leaf surface = experiment: Contact angle and solid-liquid adhesion energy on wheat leaf surface; format: physicochemical; details: 100 mg/mL
Description: Surface Adhesion Properties. The contact angle (θc) of the complexation solution on the wheat leaf surface and the surface tension at the liquid-vapor interface (γLV) were measured using a KRUSS (Model: DSA1005, Serial: 30009734, Germany) drop-shape analyzer. The wheat leaf was taped on the sample stage to prepare a flat and level surface for the measurement. […] KRUSS software tracked the surface of the droplet with respect to the leaf surface baseline and calculated the contact angle (θC). Surface tension γLv of the droplet (largest droplet formation at syringe nozzle just before dripping from the nozzle) was measured using a KRUSS drop shape analyzer (pendant needle was used, diameter 1.8 mm). The solid-liquid adhesion energy per unit area (δWSLV) of the droplet was calculated using the following Young-Dupré equation (1): [formula]

O.O.O.O.O.O=S(=O)([O-])[O-].[Cu+2] [CuSO4, copper (II) sulfate pentahydrate]
surface tension [1]: 57.46 mM/m | contact angle (wheat leaf surface): 125.2 ° | surface adhesion energy (wheat leaf surface; Young-Dupré equation): 24.17 mM/m
